Results reported in patent US10864168B2, “Bioactive delivery vehicles” (The Regents of the University of California, priority 2014, dated 2020).

Assays:
inactivated yeast = assay: Encapsulation of bioactives into inactivated yeast cells (conventional diffusion, vacuum infusion, pressure); format: physicochemical, Saccharomyces cerevisiae
From the text: Prior to encapsulation of bioactives, selected strains of both yeast and algal cells are inactivated with a chemical treatment. Chemical inactivation of yeast or algal cells stops the metabolic processes while preserving the structure and chemical composition of the cells. […] The concentration of ethanol is selected based on the results of the previous study. Briefly, 1 gm of yeast or algal cells pellet is suspended in the 35% ethanolic solution of the selected bioactive compound. […] We have determined the % ethanol to achieve sufficient encapsulation of the selected encapsulated bioactive compounds using both the vacuum and high pressure assisted encapsulation process. Yeast or algal cell samples suspended in the ethanolic solution with the bioactive compound are sealed in boilable vacuum bags (Prime Source) at 99% vacuum (Ultravac 250, Koch Equipment LLC). […] The sealed samples are covered with aluminum foil to prevent any photo-degradation of the bioactives and incubated at room temperature (25° C.) for 10 minutes. Samples are emptied into 50 mL centrifuge tubes, centrifuged at 2200 rpm for 10 minutes to pellet the cells and the pelleted cells are washed twice with ethanolic solution (35%) and then five times with excess water to remove unencapsulated bioactives. […] Samples are emptied into 50 mL centrifuge tubes, centrifuged to pellet the cells (2200 rpm for 10 minutes) and the pelleted cells are washed twice with ethanolic solution (35%) and then five times with excess water to remove unencapsulated bioactives. Briefly, yeast or algal samples in a 35% ethanolic solution of the selected bioactive compound are covered with a single layer of aluminum foil to prevent photolysis. Samples are then placed into a rotary incubator at 50° C. and 200 rpm for 24 hours. After removal from the incubator, cells are removed by centrifugation at 2000 rpm for 10 minutes. The supernatant is decanted to isolate the pelleted cells and the pelleted cells are washed as described above to remove unencapsulated bioactives. Cells are sonicated to disrupt the cellular structure. A methanol extraction is utilized to extract the encapsulated bioactives from the disrupted yeast or algal cells. 0.05 g of cells (wet basis) with encapsulated bioactives are sonicated to disrupt cellular structure and subsequently incubated with 1 mL methanol. Samples are then briefly vortexed and centrifuged at 14,000 rpm for 10 minutes. The concentration of bioactive compound dissolved in the organic phase is measured using UV-vis spectrophotometer. […] Measuring loading of these bioactive compounds in various emulsions and nanoparticles has been described. The encapsulation efficiency is determined as follows: [formula] where CE is the mass of extracted bioactive from the cells after encapsulation and CT is the amount of bioactive initially added to the cells. We have developed an innovative bioencapsulation process that provides rapid and efficient infusion of bioactives in isolated cells and lipid bodies. In this process, yeast or algal cells incubated in a solution containing bioactive were subjected to a vacuum (97% vacuum) or mild-high hydrostatic pressure (35-100 MPa) for ˜5-10 minutes. […] The results of these measurements were compared with the conventional process used for encapsulation of bioactive compounds in yeast cells.

L. casei (S1) = assay: Encapsulation efficiency into bacteria by vacuum infusion; format: physicochemical, Lactobacillus casei; conditions: vacuum infused, 35% ethanol

Mass of Encapsulated Bioactive in Yeast (inactivated yeast; 100 mM PBS, pH = 6.5, Conventional Diffusion, saturated solution, 35% v/v ethanol): 0.064 mg/g
Mass of Encapsulated Bioactive in Yeast (inactivated yeast; 100 mM PBS, pH = 6.5, HPP (200 MPa), saturated solution, 35% v/v ethanol): 0.242 mg/g
Mass of Encapsulated Bioactive in Yeast (inactivated yeast; 100 mM PBS, pH = 6.5, Vacuum Infusion, saturated solution, 35% v/v ethanol): 0.305 mg/g
Mass of Encapsulated Bioactive in Yeast (inactivated yeast; 2% Tween 20 in 100 mM Tris Buffer, pH = 8, Conventional Diffusion, saturated solution, 35% v/v ethanol): 0.292 mg/g
Mass of Encapsulated Bioactive in Yeast (inactivated yeast; 2% Tween 20 in 100 mM Tris Buffer, pH = 8, HPP (200 MPa), saturated solution, 35% v/v ethanol): 0.415 mg/g
Mass of Encapsulated Bioactive in Yeast (inactivated yeast; 2% Tween 20 in 100 mM Tris Buffer, pH = 8, Vacuum Infusion, saturated solution, 35% v/v ethanol): 0.483 mg/g
Mass of Encapsulated Bioactive in Yeast (inactivated yeast; Commercial Baker's Yeast, vacuum infused, 35% ethanol): 0.392 mg/g
Mass of Encapsulated Bioactive in Yeast (inactivated yeast; Conventional Diffusion, Single Loading): 0.134 mg/g
Mass of Encapsulated Bioactive in Yeast (inactivated yeast; S. Cerevisiae (68-115), lipogenesis Induced, vacuum infused, 35% ethanol): 0.260 mg/g
Mass of Encapsulated Bioactive in Yeast (inactivated yeast; S. Cerevisiae (68-115), lipogenesis Suppressed, vacuum infused, 35% ethanol): 0.238 mg/g
Mass of Encapsulated Bioactive in Yeast (inactivated yeast; Vacuum, Dual Loading (curcumin and fisetin added together)): 0.442 mg/g
Mass of Encapsulated Bioactive in Bacteria (L. casei (S1)): 1.041 mg/g
SMILES: COc1cc(/C=C/C(=O)CC(=O)/C=C/c2ccc(O)c(OC)c2)ccc1O [Curcumin, curcumin]
